Drawing on ChEMBL document CHEMBL1158245, “Antifungal and molluscicidal saponins from Serjania salzmanniana” (J Nat Prod, 1996), this text covers Activity and MIC for four compounds.

A value given as a limit tells only on which side of the number the result lay.

In series [1] the test system is Biomphalaria alexandrina. Description: Molluscicidal activity against Biomphalaria alexandrina assessed as number of dead snail at 20 ppm after 24 hrs. The series is classed as organism-based. The note with it: in vivo.
Series [2] concerns Biomphalaria alexandrina. Description: Molluscicidal activity against Biomphalaria alexandrina assessed as number of dead snail at 10 ppm after 48 hrs. The class given is organism-based. The note with it: in vivo.
Series [3] relates to Biomphalaria alexandrina. Nature of the series: Molluscicidal activity against Biomphalaria alexandrina assessed as number of dead snail at 10 ppm after 24 hrs. The series is classed as organism-based. The conditions noted are these: in vivo.
For series [4], the system named is Biomphalaria alexandrina. Description: Molluscicidal activity against Biomphalaria alexandrina assessed as number of dead snail at 20 ppm after 24 hrs allowed to recover for an additional 24 hrs. The class given is organism-based. The note with it: in vivo.
In series [5] the test system is Biomphalaria alexandrina. Description: Molluscicidal activity against Biomphalaria alexandrina assessed as number of dead snail at 10 ppm after 24 hrs allowed to recover for an additional 24 hrs. The class given is organism-based. The note with it: in vivo.
Series [6] concerns Biomphalaria alexandrina. Description: Molluscicidal activity against Biomphalaria alexandrina assessed as number of dead snail at 20 ppm after 48 hrs. The class given is organism-based. The note with it: in vivo.
For the next series, the system named is Candida albicans. Description: Antifungal activity against Candida albicans ATCC 10259 after 24 hrs by microplate broth assay. The series is classed as functional. The conditions noted are these: ATCC 10259, 24 h.
Another series has as its system Cryptococcus neoformans. Description: Antifungal activity against Cryptococcus neoformans ATCC 36556 after 48 hrs by microplate broth assay. The series is classed as functional. The note with it: ATCC 36556, 48 h.
In the next series the test system is Aspergillus fumigatus. Nature of the series: Antifungal activity against Aspergillus fumigatus ATCC 13073 after 48 hrs by microplate broth assay. The class given is functional. The note with it: ATCC 13073, 48 h.

For the compound `C[C@@H]1O[C@@H](O[C@H]2[C@H](O[C@H]3CC[C@]4(C)[C@H]5CC=C6[C@@H]7CC(C)(C)CC[C@]7(C(=O)O)CC[C@@]6(C)[C@]5(C)CC[C@H]4C3(C)C)OC[C@H](O[C@@H]3O[C@H](CO)[C@@H](O)[C@H](O)[C@H]3O)[C@@H]2O)[C@H](O)[C@H](O)[C@H]1O` [HEDERACOLCHISIDE A1], the Activity entry in the series on Biomphalaria alexandrina [1] is listed as “Active”; in the series on Biomphalaria alexandrina [2], 100%; with Biomphalaria alexandrina [3] it was “Active”; in the series with Biomphalaria alexandrina [4], “Active”; in the series on Biomphalaria alexandrina [5] it was “Active”; in the series on Biomphalaria alexandrina [6], 100%.

One may read the MIC as the least concentration at which growth counts as inhibited. With `C[C@@H]1O[C@@H](O[C@H]2[C@H](O[C@H]3CC[C@@]4(C)[C@@H](CC[C@]5(C)[C@@H]4CC=C4[C@@H]6CC(C)(C)CC[C@]6(C(=O)O)CC[C@]45C)[C@]3(C)CO)OC[C@H](O[C@@H]3O[C@H](CO)[C@@H](O)[C@H](O)[C@H]3O)[C@@H]2O)[C@H](O)[C@H](O)[C@H]1O` [HEDERACOLCHISIDE A], the MIC with Candida albicans is not above 16 µg/mL; against Cryptococcus neoformans, not above 8 µg/mL; in the series on Aspergillus fumigatus, not below 250 µg/mL. In addition, the Activity result in the series on Biomphalaria alexandrina [1] is recorded as “Active”; with Biomphalaria alexandrina [2], 90%; in the series with Biomphalaria alexandrina [4], “Active”; with Biomphalaria alexandrina [6], 100%.

As to `C[C@@H]1O[C@@H](O[C@H]2[C@H](O[C@H]3CC[C@]4(C)[C@H]5CC=C6[C@@H]7CC(C)(C)CC[C@]7(C(=O)O)CC[C@@]6(C)[C@]5(C)CC[C@H]4[C@]3(C)C=O)OC[C@H](O[C@@H]3O[C@H](CO)[C@@H](O)[C@H](O)[C@H]3O)[C@@H]2O)[C@H](O)[C@H](O)[C@H]1O` [SALZMANNIANOSIDE A], the minimum inhibitory concentration (MIC) in the series with Candida albicans was not above 16 µg/mL; with Cryptococcus neoformans, not above 8 µg/mL; against Aspergillus fumigatus it was not below 125 µg/mL. Moreover, the Activity entry in the series with Biomphalaria alexandrina [1] was “Active”; with Biomphalaria alexandrina [2], 0%; in the series with Biomphalaria alexandrina [3] it was “Not Active”; in the series on Biomphalaria alexandrina [4] it was “Active”; in the series with Biomphalaria alexandrina [5] it was “Not Active”; in the series on Biomphalaria alexandrina [6] it was 100%.

With `C[C@@H]1O[C@@H](O[C@H]2[C@H](O[C@H]3CC[C@@]4(C)[C@@H](CC[C@]5(C)[C@@H]4CC=C4[C@@H]6CC(C)(C)CC[C@]6(C(=O)O)CC[C@]45C)[C@]3(C)CO)OC[C@H](O[C@@H]3O[C@H](CO)[C@@H](O)[C@H](O)[C@H]3O)[C@@H]2O)[C@H](O)[C@H](O[C@@H]2OC[C@H](O)[C@H](O)[C@H]2O)[C@H]1O` [SALZMANNIANOSIDE B], the MIC was not below 125 µg/mL against Candida albicans, not above 8 µg/mL against Cryptococcus neoformans and not below 250 µg/mL with Aspergillus fumigatus. The Activity in the series on Biomphalaria alexandrina [2] was 100%; in the series with Biomphalaria alexandrina [5], “Active”; in the series on Biomphalaria alexandrina [6], 70%.
